Results: US20230085307A1, “PYRIDAZINONE COMPOUND AND HERBICIDE” (NISSAN CHEMICAL CORPORATION, priority 2019, published 2023)

Legend:
redroot pigweed = assay: Test Example 4: herbicidal effect by soil treatment (Table 19, symbol N); format: in vivo, redroot pigweed (Amaranthus retroflexus); details: amount of applied herbicide 320 g/ha
Outline: (§1)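 Step 1: sow seeds in sterilized diluvial soil, cover ~1.5 cm. Step 2: spray diluted emulsion onto soil surface at predetermined rate. Step 3: greenhouse, 25–30° C, three weeks. Step 4: grade effect on each plant by earlier criteria.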

rapeseed = assay: Test Example 5: effect on crop by foliage application, plastic box (Table 20, symbol g); format: in vivo; details: 320 g/ha, evaluated three weeks after application
Description: (§2) [Test Example 5] Herbicidal Effect Test by Foliage Application
(§3) Sterilized diluvial soil was placed in a plastic box having a length of 21 cm, a width of 13 cm, and a depth of 7 cm. The seeds of each of southern crabgrass, green foxtail, barnyard grass, wild oat, blackgrass, Italian ryegrass, windgrass, velvetleaf, redroot pigweed, lambsquarters, chickweed, false cleavers, persian speedwell, corn, soybean, rice, wheat, beet, and rapeseed were sowed in a spot-like manner and covered with the soil having a thickness of about 1.5 cm. Thereafter, the plants were grown in a greenhouse at 25° C. to 30° C. After 14-day growth of the plants, the emulsion agent of the compound of the present invention prepared according to Formulation Example 2 was diluted with water so as to achieve a predetermined herbicide amount, and the diluted emulsion agent was uniformly applied to a foliage part with a small-sized spray. Three weeks after the herbicide application, the effect of the herbicide on each plant was evaluated according to the criteria of Test Example 1.

beet = assay: Test Example 4: effect on crop by soil treatment (Table 19, symbol f); format: in vivo; details: amount of applied herbicide 320 g/ha
Description: (§4) [Test Example 4] Herbicidal Effect Test by Soil Treatment
as §3, with “Subsequently,” for “Thereafter, the plants were grown in a greenhouse at 25° C. to 30° C. After 14-day growth of the plants,”, “the surface of the soil” for “a foliage part”, “spray. The plastic box was placed in a greenhouse at 25° C. to 30° C. for growth of the plants.” for “spray.”

lambsquarters = assay: Test Example 5: herbicidal effect by foliage application, plastic box (Table 20, symbol O); format: in vivo, lambsquarters (Chenopodium album); details: foliage application, 320 g/ha, evaluated three weeks after application
Outline: (§5)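 Foliar spray test: emulsion formulation diluted in water to a set application rate, sprayed onto 14-day-old plants raised in diluvial soil at 25° C to 30° C under glass. Both herbicidal effect and crop effect rated visually three weeks later.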

Italian ryegrass [1] = assay: Test Example 5: herbicidal effect by foliage application, plastic box (Table 20, symbol K); format: in vivo, Italian ryegrass (Lolium multiflorum); details: foliage application, 320 g/ha, evaluated three weeks after application
Outline: as §5

green foxtail [2] = assay: Test Example 4: herbicidal effect by soil treatment (Table 19, symbol G); format: in vivo, green foxtail (Setaria viridis); details: amount of applied herbicide 320 g/ha
Outline: as §1

barnyard grass [3] = assay: Test Example 3: herbicidal effect by foliage application, Wagner pot (Table 18, symbol H); format: in vivo, barnyard grass (Echinochloa crus-galli); details: amount of applied herbicide 320 g/ha
Outline: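 Plants were sown in alluvial soil held under 0.1–0.5 cm standing water and grown 14 days in a greenhouse at 25–30 °C. An emulsifiable formulation, water-diluted to the set dose, was then sprayed onto the foliage, and effects were scored three weeks later using previously defined criteria.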

green foxtail [4] = assay: Test Example 5: herbicidal effect by foliage application, plastic box (Table 20, symbol G); format: in vivo, green foxtail (Setaria viridis); details: foliage application, 320 g/ha, evaluated three weeks after application
Outline: as §5

persian speedwell = assay: Test Example 5: herbicidal effect by foliage application, plastic box (Table 20, symbol R); format: in vivo, Persian speedwell (Veronica persica); details: foliage application, 320 g/ha, evaluated three weeks after application
Outline: as §5

barnyard grass [5] = assay: Test Example 5: herbicidal effect by foliage application, plastic box (Table 20, symbol H); format: in vivo, barnyard grass (Echinochloa crus-galli); details: foliage application, 320 g/ha, evaluated three weeks after application
Outline: as §5

velvetleaf [6] = assay: Test Example 4: herbicidal effect by soil treatment (Table 19, symbol M); format: in vivo, velvetleaf (Abutilon theophrasti); details: amount of applied herbicide 320 g/ha
Outline: as §1

chickweed = assay: Test Example 4: herbicidal effect by soil treatment (Table 19, symbol P); format: in vivo, common chickweed (Stellaria media); details: amount of applied herbicide 320 g/ha
Outline: as §1

corn [7] = assay: Test Example 5: effect on crop by foliage application, plastic box (Table 20, symbol c); format: in vivo; details: 320 g/ha, evaluated three weeks after application
Description: as §2, §3

velvetleaf [8] = assay: Test Example 5: herbicidal effect by foliage application, plastic box (Table 20, symbol M); format: in vivo, velvetleaf (Abutilon theophrasti); details: foliage application, 320 g/ha, evaluated three weeks after application
Outline: as §5

corn [9] = assay: Test Example 4: effect on crop by soil treatment (Table 19, symbol c); format: in vivo; details: amount of applied herbicide 320 g/ha
Description: as §4
as §3, with “Subsequently,” for “Thereafter, the plants were grown in a greenhouse at 25° C. to 30° C. After 14-day growth of the plants,”, “the surface of the soil” for “a foliage part”, “spray. The plastic box was placed in a greenhouse at 25° C. to 30° C. for growth of the plants.” for “spray.”

Italian ryegrass [10] = assay: Test Example 4: herbicidal effect by soil treatment (Table 19, symbol K); format: in vivo, Italian ryegrass (Lolium multiflorum); details: amount of applied herbicide 320 g/ha
Outline: as §1

windgrass = assay: Test Example 5: herbicidal effect by foliage application, plastic box (Table 20, symbol L); format: in vivo, windgrass (Apera spica-venti); details: foliage application, 320 g/ha, evaluated three weeks after application
Outline: as §5

directly sowed rice = assay: Test Example 3: effect on crop by foliage application, Wagner pot (Table 18, symbol b); format: in vivo; details: amount of applied herbicide 320 g/ha
Procedure: [Test Example 3] Herbicidal Effect Test by Foliage Application After alluvial soil was placed into 1/10000 are of Wagner pot, water was poured and mixed to form a submerged condition having a water depth of 0.1 cm to 0.5 cm. Seeds of barnyard grass, Chinese sprangletop, rice flat sedge, and rice were sowed and the pot was placed in a greenhouse at 25° C. to 30° C. for growth of the plants. After 14-day growth of the plants, the emulsion agent of the compound of the present invention prepared according to Formulation Example 2 was diluted with water so as to achieve a predetermined herbicide amount, and the diluted emulsion agent was uniformly applied to a foliage part with a small-sized spray. Three weeks after the herbicide application, the effect of the herbicide on each plant was evaluated according to the criteria of Test Example 1.

COc1ccccc1-c1sc2ccc(C3CC3)cc2c1-c1c(O)c(C)nn(C)c1=O [Compound No. 2-160, 4-(5-cyclopropyl-2-(2-methoxyphenyl)benzo[b]thiophen-3-yl)-5-hydroxy-2,6-dimethylpyridazin-3(2H)-one]
N: redroot pigweed, herbicidal effect rating (redroot pigweed): 0 (Herbicidal rate of 5% or less (almost no effect)) | effect on crop g: rapeseed (criteria 0-5) (rapeseed): 5 (Herbicidal rate of 90% or more (almost completely withered)) | f: beet, effect on crop rating (beet): 0 (Herbicidal rate of 5% or less (almost no effect)) | herbicidal effect on O: lambsquarters (criteria 0-5) (lambsquarters): 2 (Herbicidal rate of 20% or more and less than 40%) | herbicidal effect on K: Italian ryegrass (criteria 0-5) (Italian ryegrass [1]): 3 (Herbicidal rate of 40% or more and less than 70%) | G: green foxtail, herbicidal effect rating (green foxtail [2]): 0 (Herbicidal rate of 5% or less (almost no effect)) | herbicidal effect on H: barnyard grass (barnyard grass [3]): 4 (Herbicidal rate of 70% or more and less than 90%) | herbicidal effect on G: green foxtail (criteria 0-5) (green foxtail [4]): 4 (Herbicidal rate of 70% or more and less than 90%) | herbicidal effect on R: persian speedwell (criteria 0-5) (persian speedwell): 5 (Herbicidal rate of 90% or more (almost completely withered)) | herbicidal effect on H: barnyard grass (criteria 0-5) (barnyard grass [5]): 4 (Herbicidal rate of 70% or more and less than 90%) | M: velvetleaf, herbicidal effect rating (velvetleaf [6]): 0 (Herbicidal rate of 5% or less (almost no effect)) | P: chickweed, herbicidal effect rating (chickweed): 1 (Herbicidal rate of 5% or more and less than 20%) | effect on crop c: corn (criteria 0-5) (corn [7]): 0 (Herbicidal rate of 5% or less (almost no effect)) | herbicidal effect on M: velvetleaf (criteria 0-5) (velvetleaf [8]): 4 (Herbicidal rate of 70% or more and less than 90%) | c: corn, effect on crop rating (corn [9]): 0 (Herbicidal rate of 5% or less (almost no effect)) | K: Italian ryegrass, herbicidal effect rating (Italian ryegrass [10]): 0 (Herbicidal rate of 5% or less (almost no effect)) | herbicidal effect on L: windgrass (criteria 0-5) (windgrass): 5 (Herbicidal rate of 90% or more (almost completely withered)) | effect on crop b: directly sowed rice (directly sowed rice): 0 (Herbicidal rate of 5% or less (almost no effect)) | melting point: 182 to 184 °C
